Measured values: US7897619B2, “Heterocyclic modulators of PKB” (Amgen Inc., priority 2007, dated 2011)
Counter-ions that a name gives are not always drawn.

The compounds below were run against PKBα (Homo sapiens, UniProt P31749) (assay: PKB kinase assay (P33-labeled ATP, synthetic peptide substrate, filter plate)). Conditions: PKBα enzyme (full length or kinase domain with pleckstrin domain deleted).
Type: biochemical
Text: The kinase assay for evaluating PKB activity comprises active PKB enzymes, a PKB specific substrate, and P^33-labeled ATP. Two forms of PKBα enzymes were used, the full length PKBα and a kinase domain of PKBα with pleckstrin domain (amino acids 1-117) deleted. Both PKB enzymes were obtained from Upstate cell signaling solutions (Cat.# 14-276 and 14-341). The PKB substrate used is a synthetic peptide (ARKRERTYSFGHHA (SEQ ID NO: 1)) as described in Obata et al., J. Biol. Chem. 275 (46), 36108-36115 (2000). The phosphorylated substrate was captured by a phosphocellulose membrane filter plate (MILLIPORE) and measured by a Wallac Microbeta liquid scintillation counter (Perkin Elmer). Table 1 provides the IC50 values obtained for each of the examples with respect to PKBα.

Chain of PKBα (P31749 118-480 limits assumed): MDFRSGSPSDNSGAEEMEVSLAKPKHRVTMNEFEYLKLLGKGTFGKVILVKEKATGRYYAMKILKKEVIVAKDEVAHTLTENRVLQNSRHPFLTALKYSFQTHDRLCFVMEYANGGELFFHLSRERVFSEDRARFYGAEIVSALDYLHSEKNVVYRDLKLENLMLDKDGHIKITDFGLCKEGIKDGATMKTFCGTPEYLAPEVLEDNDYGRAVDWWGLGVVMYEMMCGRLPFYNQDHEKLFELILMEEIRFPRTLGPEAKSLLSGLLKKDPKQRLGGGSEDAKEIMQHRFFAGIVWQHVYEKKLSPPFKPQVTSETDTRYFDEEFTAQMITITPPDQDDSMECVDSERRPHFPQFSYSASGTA

Row | IC50 [nM] | Structure (SMILES)
1 | 50 to 1000 | N[C@H](CCc1cc(-c2ccc3cnccc3c2)no1)Cc1ccc(Cl)cc1 [Example 25, (2R)-1-(4-Chlorophenyl)-4-(3-(isoquinolin-6-yl)isoxazol-5-yl)butan-2-amine]
2 | 1000 to 10000 | N[C@H](CNc1nc(-c2ccc3c(c2)CC(=O)N3)ns1)Cc1ccc(C(F)(F)F)cc1 [Example 44, 5-(5-((S)-2-Amino-3-(4-(trifluoromethyl)phenyl)propylamino)-1,2,4-thiadiazol-3-yl)indolin-2-one]
3 | 50 to 1000 | N[C@H](CCc1nnc(-c2ccc3cnccc3c2)o1)Cc1ccc(C(F)(F)F)cc1 [Example 66, (2R)-4-(5-(Isoquinolin-6-yl)-1,3,4-oxadiazol-2-yl)-1-(4-(trifluoromethyl)phenyl)butan-2-amine]
4 | 50 to 1000 | Cc1n[nH]c2ccc(-c3cn(CC[C@@H](N)Cc4ccc(C(F)(F)F)cc4)nn3)cc12 [Example 38, (2S)-4-(4-(3-Methyl-1H-indazol-5-yl)-1H-1,2,3-triazol-1-yl)-1-(4-(trifluoromethyl)phenyl)butan-2-amine]
5 | 1000 to 10000 | N[C@@H](Cc1ccc(C(F)(F)F)cc1)c1nc(-c2ccc3c(c2)CC(=O)N3)no1 [Example 49, 5-(5-((S)-1-Amino-2-(4-(trifluoromethyl)phenyl)ethyl)-1,2,4-oxadiazol-3-yl)indolin-2-one]
6 | 50 to 1000 | N[C@H](CCc1cc(-c2ccc3cnccc3c2)no1)Cc1ccc(Cl)cc1Cl [Example 30, (2R)-1-(2,4-Dichlorophenyl)-4-(3-(isoquinolin-6-yl)isoxazol-5-yl)butan-2-amine]
7 | 1000 to 10000 | Cc1n[nH]c2ccc(-c3cn(CC[C@@H](N)Cc4ccccc4)nn3)cc12 [Example 40, (2S)-4-(4-(3-Methyl-1H-indazol-5-yl)-1H-1,2,3-triazol-1-yl)-1-phenylbutan-2-amine]
8 | 50 to 1000 | N[C@H](CCn1cc(-c2ccc3cnccc3c2)cn1)Cc1ccc(F)cc1 [Example 62, (2S)-1-(4-Fluorophenyl)-4-(4-(isoquinolin-6-yl)-1H-pyrazol-1-yl)butan-2-amine]
9 | < 50 | N[C@H](CCn1cc(-c2ccc3cnccc3c2)cn1)Cc1ccc(Cl)cc1 [Example 56, (2S)-1-(4-Chlorophenyl)-4-(4-(isoquinolin-6-yl)-1H-pyrazol-1-yl)butan-2-amine]
10 | < 50 | N[C@H](CCn1cc(-c2ccc3cnc(F)cc3c2)cn1)Cc1ccc(Cl)cc1 [Example 55, (2S)-1-(4-Chlorophenyl)-4-(4-(3-fluoroisoquinolin-6-yl)-1H-pyrazol-1-yl)butan-2-amine]
11 | 50 to 1000 | N[C@H](CNc1cnn(-c2ccc3cnccc3c2)c1)Cc1ccc(Cl)cc1 [Example 46, N-((S)-2-Amino-3-(4-chlorophenyl)propyl)-1-(isoquinolin-6-yl)-1H-pyrazol-4-amine]
12 | 1000 to 10000 | N[C@H](CCc1cc(-c2ccc3cnccc3c2)no1)Cc1ccccc1Cl [Example 27, (2R)-1-(2-chlorophenyl)-4-(3-(isoquinolin-6-yl)isoxazol-5-yl)butan-2-amine]
13 | 50 to 1000 | N[C@H](CNc1cnc(-c2ccc3cnccc3c2)s1)Cc1ccc(C(F)(F)F)cc1 [Example 41, N-((S)-2-Amino-3-(4-(trifluoromethyl)phenyl)propyl)-2-(isoquinolin-6-yl)thiazol-5-amine trifluoroacetate]
14 | 50 to 1000 | N[C@H](CCn1cc(-c2ccc3cnccc3c2)cn1)Cc1ccc(Cl)cc1Cl [Example 63, (2S)-1-(2,4-Dichlorophenyl)-4-(4-(isoquinolin-6-yl)-1H-pyrazol-1-yl)butan-2-amine]
15 | < 50 | N[C@H](CCn1cc(-c2ccc3[nH]ncc3c2)cn1)Cc1ccc(Cl)cc1 [Example 52, (2S)-4-(4-(1H-Indazol-5-yl)-1H-pyrazol-1-yl)-1-(4-chlorophenyl)butan-2-amine]

The next lines start with the compound.

Row | Structure (SMILES) | IC50 [nM]
16 | N[C@@H](Cc1ccc(C(F)(F)F)cc1)Cc1nc(-c2ccc3cnccc3c2)no1 [Example 4, (2S)-1-(3-(Isoquinolin-6-yl)-1,2,4-oxadiazol-5-yl)-3-(4-(trifluoromethyl)phenyl)propan-2-amine] | 1000 to 10000
17 | Cc1n[nH]c2ccc(-c3nnc(NC[C@@H](N)Cc4cccc(C(F)(F)F)c4)o3)cc12 [Example 2, N-((S)-2-amino-3-(3-(trifluoromethyl)phenyl)propyl)-5-(3-methyl-1H-indazol-5-yl)-1,3,4-oxadiazol-2-amine] | 1000 to 10000
18 | N[C@H](CCc1cc(-c2ccc3cnccc3c2)no1)Cc1ccccc1 [Example 23, (2R)-4-(3-(isoquinolin-6-yl)isoxazol-5-yl)-1-phenylbutan-2-amine] | 1000 to 10000
19 | Cc1n[nH]c2ccc(-c3cnc(NC[C@@H](N)Cc4ccc(C(F)(F)F)cc4)o3)cc12 [Example 9, N-((S)-2-Amino-3-(4-(trifluoromethyl)phenyl)propyl)-5-(3-methyl-1H-indazol-5-yl)oxazol-2-amine] | 50 to 1000
20 | N[C@H](CNc1cc(-c2ccc3cnccc3c2)no1)Cc1ccccc1 [Example 15, N-((S)-2-Amino-3-phenylpropyl)-3-(isoquinolin-6-yl)isoxazol-5-amine] | 50 to 1000
21 | N[C@H](CNc1cc(-c2ccc3cnccc3c2)no1)Cc1ccc(Cl)cc1 [Example 11, N-((S)-2-Amino-3-(4-chlorophenyl)propyl)-3-(isoquinolin-6-yl)isoxazol-5-amine] | < 50
22 | N[C@H](CNc1cc(-c2ccc3cnccc3c2)on1)Cc1ccc(C(F)(F)F)cc1 [Example 20, N-((S)-2-Amino-3-(4-(trifluoromethyl)phenyl)propyl)-5-(isoquinolin-6-yl)isoxazol-3-amine] | 50 to 1000
23 | N[C@H](CNc1cc(-c2ccc3cnccc3c2)no1)Cc1cccc(C(F)(F)F)c1 [Example 13, N-((S)-2-Amino-3-(3-(trifluoromethyl)phenyl)propyl)-3-(isoquinolin-6-yl)isoxazol-5-amine] | < 50
24 | N[C@H](CCc1cc(-c2ccc3cnccc3c2)no1)Cc1ccc(C(F)(F)F)cc1 [Example 24, (2R)-4-(3-(Isoquinolin-6-yl)isoxazol-5-yl)-1-(4-(trifluoromethyl)phenyl)butan-2-amine] | < 50
25 | N[C@H](CNc1cc(-c2ccc3cnccc3c2)no1)Cc1ccccc1Cl [Example 18, N-((S)-2-Amino-3-(2-chlorophenyl)propyl)-3-(isoquinolin-6-yl)isoxazol-5-amine] | 50 to 1000
26 | N[C@H](CNc1cc(-c2ccc3cnccc3c2)on1)Cc1ccc(Cl)cc1 [Example 22, N-((S)-2-Amino-3-(4-chlorophenyl)propyl)-5-(isoquinolin-6-yl)isoxazol-3-amine] | 50 to 1000
27 | COc1ccc(CNc2ncc(-c3ccc4cnccc4c3)o2)cc1 [Example 6, N-(4-Methoxybenzyl)-5-(isoquinolin-6-yl)oxazol-2-amine] | 1000 to 10000
28 | COc1ccc(CNc2ncc(-c3ccccc3)o2)cc1 [Example 7, N-(4-Methoxybenzyl)-5-phenyloxazol-2-amine] | 1000 to 10000
